Source: publication PMC8217170, “Phase Ib dose-escalation study of the hypoxia-modifier Myo-inositol trispyrophosphate in patients with hepatopancreatobiliary tumors” (Nature Communications, 2021)

Experiment: Phase Ib dose escalation: safety and tolerability (CTCAE v4.03), MTD
Format: in vivo, human
Set-up: key to Hypercalcemia, CTCAE-Grade / Hypophosphatemia, CTCAE-Grade / Cholestasis, CTCAE-Grade / Nausea, CTCAE-Grade / Hypertension, CTCAE-Grade / Upper respiratory tract infection, CTCAE-Grade / Hyponatremia, CTCAE-Grade / Hypomagnesemia, CTCAE-Grade / Ascites & death due to rapid progression of malignancy, CTCAE-Grade / Hypokalemia, CTCAE-Grade / Pyrexia, CTCAE-Grade / Hyperphosphatemia, CTCAE-Grade / AV Block 1°, CTCAE-Grade / Palpations, CTCAE-Grade: 1 is the mildest form of the specific symptom; 5 is death
Conditions: for Hypercalcemia, CTCAE-Grade: relationship to IMP: Definitively
Source text: This first-in-patient investigator-initiated phase Ib dose-escalation study followed a 3 + 3 dose-escalation scheme with a planned maximal inclusion of 48 participants allocated to eight cohorts of increasing doses. Outcomes were safety, tolerability, pharmacokinetics, and preliminary efficacy of ITPP with participants in this exploratory, prospective, open-label and unblinded, unrandomized, single-center investigation being enrolled at the University Hospital Zurich (USZ), Switzerland. Written informed consent was obtained of all participants before study inclusion after a time of consideration of at least 24 h. Written consent included the reporting and publication of individual, anonymized patient data. The study adhered to the principles of the Declaration of Helsinki, current good clinical practice guidelines and all ethical regulations. The study protocol was approved by the responsible independent ethics committee of Zurich (KEK-ZH-Nr. 2014-0374) and the national regulatory authority Swissmedic (2015DR1009) and is provided in the Supplementary Note 1. The study setup was published before inclusion start[55] and the trial first registered at ClinicalTrials.gov (NCT02528526) on 11/11/2014. After 6 sequential reviews requiring minor editorial changes, final registration at ClinicalTrials.gov was obtained on the 08/18/2015. The first patient was included in the study 04/13/2015, with treatment started on the 04/27/2015. 4 patients were included in the trial before final registration at ClinicalTrials.gov (04/13/2015–07/20/2015). The last patient was included on the 06/12/2018, treatment started on the 06/18/2018 and the last treatment administered on 07/06/2018. Data cut-off for the study was the 12/31/2018. The manuscript was written in compliance with ICMJE guidelines.
Primary objectives were (i) assessment of the safety and tolerability of increasing doses of ITPP, and (ii) establishment of the MTD (primary endpoint) according to the dose escalation schema. The primary outcome was measured by collection of adverse effects information according to Common Terminology Criteria for Adverse Events (CTCAE, US National Cancer Institute, version 4.03). Safety objectives and outcomes were identical with the primary endpoint.
The study drug (brand name: OXY111A) was intravenously administered in 9 infusions, each lasting 8 h, over 3 weeks in an outpatient setting at the Phase 1 unit of the USZ Clinical Trials Center. Due to its anionic properties, ITPP acts a potent chelator of calcium. Therefore, administration with CaCl2 (Baxter) at a 1:0.75 molar ratio has been determined to prevent hypocalcaemia. Respective doses were calculated based on body surface area (DuBois/DuBois formula). Cohort 1 started at weekly doses of 5600 mg/m^2 weekly, equal to the maximal weekly dose tested in healthy volunteers (unpublished data from Normoxys®). Dose escalation was performed according to the predefined scheme (Fig. 1a, Supplementary Note 1: page 6) up to a maximum weekly dose of 43,700 mg/m^2. During infusion days, participants had continuous monitoring of vital signs and daily 12-electrode electrocardiograms. Electrolytes measurements and venous blood gas analyses were performed three-hourly, while complete blood count, coagulation and routine kidney/liver parameters were assessed twice daily.
Severity of encountered AE was assessed following the CTCAE guidelines. Serious AE were defined as events being life-threatening, necessitating hospitalization, resulting in death or birth defects. DLT was defined as any AE ≥ grade 3 and sTET as any grade 2 AE considered to be definitely, probably or possibly related to ITPP. […] MTD was defined as the dose preceding the level at which 1 patient experienced a DLT or ≥3 patients experienced a sTET (Supplementary Note 1: page 6). The window for DLT/sTET/MTD assessment was from first dose of ITPP until first dose of chemotherapy or 10d following the last ITPP infusion. […]

[1] = cohort 4, AE, relationship to IMP: Possibly
[2] = cohort 4, AE, relationship to IMP: Unrelated
[3] = cohort 4, SAE, relationship to IMP: Unrelated
[4] = cohort 5, AE, relationship to IMP: Unlikely
[5] = cohort 7, AE, relationship to IMP: Unlikely
[6] = cohort 7, AE, relationship to IMP: Unrelated
[7] = cohort 8, AE, relationship to IMP: Possibly

## O=P1(O)OC2C3OP(=O)(O)OP(=O)(O)OC3C3OP(=O)(O)OP(=O)(O)OC3C2OP(=O)(O)O1 (stereo not drawn) [ITPP, Myo-inositol trispyrophosphate]
Cohort 4, 7000 mg/m^2
  Icterus due to malignant obstruction (AE, not ITPP-related): 0
  Lower gastrointestinal bleeding (AE, not ITPP-related): 0
  Nausea & vomiting due to malignant infiltration of stomach (AE, not ITPP-related): 0
  Neutropenia (AE, not ITPP-related): 0
  Palpitations (AE, not ITPP-related): 0
  Pyrexia (AE, not ITPP-related): 0
Cohort 4, AE
  Hypercalcemia, CTCAE-Grade: 1
[1]
  Hypertension, CTCAE-Grade: 1
  Hypophosphatemia, CTCAE-Grade: 1
[2]
  Ascites, CTCAE-Grade: 3
  Nausea, CTCAE-Grade: 1
  Upper respiratory tract infection, CTCAE-Grade: 1
[3]
  Acute kidney injury grad 3, CTCAE-Grade: 3
  Hospitalisation due to fatigue/decreased state of health, CTCAE-Grade: 3
Cohort 5, 8750 mg/m^2
  AV Block 1° (AE, not ITPP-related): 0
  Acute kidney injury grade 3 (AE, not ITPP-related): 0
  Ascites due to oncological progress (AE, not ITPP-related): 0
  C. difficile enteritis (AE, not ITPP-related): 0
  Cholestasis (AE, not ITPP-related): 0
  Fatigue (AE, not ITPP-related): 0
  Hyperphosphatemia (TET): 0
  Hypertension (TET): 0
  Hypomagnesemia (TET): 0
  Hypophosphatemia (TET): 0
  Lower gastrointestinal bleeding (AE, not ITPP-related): 0
  Nausea & vomiting due to malignant infiltration of stomach (AE, not ITPP-related): 0
  Nausea (AE, not ITPP-related): 0
  Neutropenia (AE, not ITPP-related): 0
  Palpitations (AE, not ITPP-related): 0
  Pyrexia (AE, not ITPP-related): 0
  Upper respiratory tract infection (AE, not ITPP-related): 0
Cohort 5, AE
  Hypercalcemia, CTCAE-Grade: 1
[4]
  Hypokalemia, CTCAE-Grade: 2
  Hyponatremia, CTCAE-Grade: 1
  Icterus/Stenosis D. choledochus, CTCAE-Grade: 3
Cohort 6, 10,500 mg/m^2
  AV Block 1° (AE, not ITPP-related): 0
  Acute kidney injury grade 3 (AE, not ITPP-related): 0
  Ascites due to oncological progress (AE, not ITPP-related): 0
  C. difficile enteritis (AE, not ITPP-related): 0
  Cholestasis (AE, not ITPP-related): 0
  Fatigue (AE, not ITPP-related): 0
  Hyperphosphatemia (TET): 0
  Hypertension (TET): 0
  Hypokalemia (AE, not ITPP-related): 0
  Hyponatremia (AE, not ITPP-related): 0
  Hypophosphatemia (TET): 0
  Icterus due to malignant obstruction (AE, not ITPP-related): 0
  Lower gastrointestinal bleeding (AE, not ITPP-related): 0
  Nausea & vomiting due to malignant infiltration of stomach (AE, not ITPP-related): 0
  Nausea (AE, not ITPP-related): 0
  Palpitations (AE, not ITPP-related): 0
  Pyrexia (AE, not ITPP-related): 0
  Upper respiratory tract infection (AE, not ITPP-related): 0
Cohort 6, AE
  Hypercalcemia, CTCAE-Grade: 1
Cohort 6, AE, relationship to IMP: Possibly
  Hypomagnesemia, CTCAE-Grade: 1
Cohort 6, AE, relationship to IMP: Unlikely
  Neutropenia, CTCAE-Grade: 3
Cohort 7, 12,390 mg/m^2
  AV Block 1° (AE, not ITPP-related): 0
  Acute kidney injury grade 3 (AE, not ITPP-related): 0
  C. difficile enteritis (AE, not ITPP-related): 0
  Cholestasis (AE, not ITPP-related): 0
  Fatigue (AE, not ITPP-related): 0
  Hyperphosphatemia (TET): 0
  Hypertension (TET): 0
  Hypomagnesemia (TET): 0
  Hypophosphatemia (TET): 0
  Icterus due to malignant obstruction (AE, not ITPP-related): 0
  Lower gastrointestinal bleeding (AE, not ITPP-related): 0
  Nausea & vomiting due to malignant infiltration of stomach (AE, not ITPP-related): 0
  Nausea (AE, not ITPP-related): 0
  Neutropenia (AE, not ITPP-related): 0
  Palpitations (AE, not ITPP-related): 0
Cohort 7, AE
  Hypercalcemia, CTCAE-Grade: 1
[5]
  Hypokalemia, CTCAE-Grade: 1
  Upper respiratory tract infection, CTCAE-Grade: 2
[6]
  Ascites, CTCAE-Grade: 3
  Pyrexia, CTCAE-Grade: 1
Cohort 8, 14,500 mg/m^2
  Acute kidney injury grade 3 (AE, not ITPP-related): 0
  Ascites due to oncological progress (AE, not ITPP-related): 0
  C. difficile enteritis (AE, not ITPP-related): 0
  Cholestasis (AE, not ITPP-related): 0
  Fatigue (AE, not ITPP-related): 0
  Hypokalemia (AE, not ITPP-related): 0
  Hyponatremia (AE, not ITPP-related): 0
  Hypophosphatemia (TET): 0
  Icterus due to malignant obstruction (AE, not ITPP-related): 0
  Lower gastrointestinal bleeding (AE, not ITPP-related): 0
  Nausea & vomiting due to malignant infiltration of stomach (AE, not ITPP-related): 0
  Nausea (AE, not ITPP-related): 0
  Neutropenia (AE, not ITPP-related): 0
  Palpitations (AE, not ITPP-related): 0
  Pyrexia (AE, not ITPP-related): 0
  Upper respiratory tract infection (AE, not ITPP-related): 0
[7]
  Hyperphosphatemia, CTCAE-Grade: 1
  Hypomagnesemia, CTCAE-Grade: 1
Cohort 8, AE, relationship to IMP: Probably
  Hypertension, CTCAE-Grade: 1
Cohort 8, AE, relationship to IMP: Unrelated
  AV Block 1°, CTCAE-Grade: 1
Cohorts 1–7
  sTET or DLT: No significant treatment-emergent toxicity (sTET) or dose limiting toxicity (DLT) was encountered
During ITPP administration and 10-day follow-up
  Total number of adverse events (AE): 56
Grade I, three older male patients with pre-existing hypertension
  Increase in diastolic blood pressure: < 20 mmHg
Patient Nr. 27, cohort 8, single dose 14’500 mg/m^2
  Hypercalcemia of free ionized calcium, CTCAE grade (first sTET): grade II
Patient Nr. 28, cohort 8, single dose 14’500 mg/m^2
  Hypercalcemia of free ionized calcium, CTCAE grade (second sTET and DLT): grade II and IV
Single dose, intravenous over eight hours, nine infusions over three weeks
  Maximum tolerated dose (MTD): 12,390 mg/m^2
